The values below are quoted from earlier work in patent US20230372421A1, “IMMATURE POMEGRANATE EXTRACT FORMULATIONS” (CONSIGLIO NAZIONALE DELLE RICERCHE, priority 2020, published 2023).

This data set has as its system cells of neuronal origin. As to conditions: Jin, Yu, Wang & Xu, 2016.

On to `O=C1O[C@H]2[C@H](OC(=O)c3cc(O)c(O)c(O)c3)O[C@@H]3COC(=O)c4cc(O)c(O)c(O)c4-c4c(cc(O)c(O)c4O)C(=O)O[C@H]2[C@@H]3OC(=O)c2cc(O)c(O)c3c2C2C1=CC(=O)C(O)(O)C2(O)O3` (stereo partly shown) [granatin B], for which the anticancer properties entry was “important anticancer properties”.
